Assay results: PubChem BioAssay (NCI)
Values joined by “and” are separate entries in the source; they are usually repeats but may differ in a detail not shown here. Equal entries are not always repeated.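 Step 1: Grow cells in 96-well plates. Step 2: Expose to compound for 48 hours at 5 concentrations. Step 3: Interpolate endpoints linearly; if unreached, use highest concentration. At the GI50, growth is halved. TGI denotes the concentration required for complete inhibition of growth.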

Legend:
Assay in all cases: NCI anticancer screen, dose series, 48 h
BT-549 breast = test system: BT-549 breast
NCI/ADR-RES ovarian = test system: NCI/ADR-RES ovarian
PC-3 prostate = test system: PC-3 prostate

SMILES | GI50 (BT-549 breast) | TGI (BT-549 breast) | GI50 (NCI/ADR-RES ovarian) | TGI (NCI/ADR-RES ovarian) | GI50 (PC-3 prostate) | TGI (PC-3 prostate)
Cc1nnc(-c2ccc(C)c(-c3ccc(C(=O)Nc4cccc(C#N)c4)cc3)c2)o1 | > 25 µM | > 25 µM | > 25 µM | > 25 µM | > 25 µM | > 25 µM
C=C(C)[C@@H]1CC[C@]2(COCCCN)CC[C@]3(C)[C@H](CC[C@@H]4[C@@](C)(CCCNCCCN)[C@H](C(=C)C)CC[C@]43C)[C@@H]12 | 10.6 µM | 29.6 µM | 1.88 µM | 3.63 µM | 1.7 µM | 3.25 µM
CCCCCCCCn1ccc2cc(NC(=O)Cn3cc(CN4CCCCCC4)nn3)ccc21 | 1.72 µM | 3.32 µM | 1.79 µM | 3.56 µM | – | –
N/N=C\c1c2ccccc2c(=O)n2c1oc1ccccc12 | 1.42 µM | 17 µM | 16.9 µM | 38.1 µM | 12.7 µM | 26.4 µM
CSC(SC)(C(=O)O)c1cc(-c2c(Cl)cccc2Cl)no1 | – | > 100 µM | – | > 100 µM | – | > 100 µM
Nc1ncc(-c2cnn(C3CCNCC3)c2)cc1-c1nc2cc(Cl)ccc2o1 | 1.61 µM | 3.14 µM | – | – | 1.29 µM | 2.77 µM
C=CC(=O)N1CCC(Oc2cc3c(Nc4ccc(Cl)c(Cl)c4F)ncnc3cc2OC)CC1 | 1.9 µM and 2.23 µM | 13.4 µM and > 10 µM | 1.43 µM and 1.41 µM | 10.3 µM and > 9.25 µM | 7.66 µM and 2.95 µM | 24.5 µM and > 10 µM
NC(CSC(c1ccccc1)(c1ccccc1)c1ccccc1)C(=O)NCC(=O)O (centres undefined) | 10.1 µM | > 100 µM | 26.5 µM | > 100 µM | 5.25 µM | > 100 µM
CN(c1ccc(NC(=O)Nc2c(Cl)cccc2Cl)cc1)c1ccnc(Nc2cccc(CS(C)(=O)=O)c2)n1 | 3.3 µM | 8.15 µM | 5.49 µM | > 25 µM | 1.56 µM | 8.6 µM
C=C1c2c(C)nn(-c3ccc(C#CCOC4OC(CO)C(O)C(O)C4O)cc3)c2N(C)C23C[C@H]1C1(C)c4c(C)nn(-c5ccc(C#CCOC6OC(CO)C(O)C(O)C6O)cc5)c4N(C)C(C)(C[C@H]12)C3 (some centres undefined) | 1.3 µM | 2.97 µM | 5.43 µM | 47 µM | 0.702 µM | 2.56 µM
COc1ccc2c(c1)NC1=C(C(=O)OC1)C2c1cc(OC)c(OC)c(OC)c1 (centres undefined) | < 0.01 µM | < 0.01 µM | < 0.01 µM | 0.0277 µM | < 0.01 µM | > 100 µM
C[C@]12CCc3sc(Nc4ccc(OC(F)(F)F)cc4)nc3C1=CC[C@@H]1[C@@H]2CC[C@]2(C)C(=O)CC[C@@H]12 | 1.78 µM | 7.42 µM | 3.93 µM | 20.2 µM | – | –
CCOc1cccc(/C=N/NC(=O)c2cccc(Nc3ccnc(C(F)(F)F)c3)c2)c1O | 1.44 µM | 36.5 µM | 3.02 µM | 27.8 µM | 3.28 µM | > 92.8 µM
CC1(C)N=C(N)N=C(N)N1c1ccc(CCC(=O)Nc2ccc(S(=O)(=O)F)cc2)c(Cl)c1 | 0.995 µM | > 100 µM | > 100 µM | > 100 µM | 0.0926 µM | 49.7 µM
O=C(Oc1ccc[nH]c1=O)c1cc([N+](=O)[O-])cc([N+](=O)[O-])c1 | > 100 µM | > 100 µM | > 100 µM | > 100 µM | > 100 µM | > 100 µM
O=C1C=CC(=O)C2C1C1(Cl)C(Cl)=C(Cl)C2(Cl)C1(Cl)Cl (centres undefined) | – | – | 3.75 µM | > 100 µM | 2.73 µM | 20 µM
CCN(CC)CCNC(Cc1ccccc1)c1ccc(OCc2ccccc2)cc1 (centres undefined) | 3.55 µM | 18.7 µM | 9.87 µM | 23.2 µM | 3.68 µM | 15.7 µM
COc1ccc2c(c1)C(=O)/C(=C/c1cccc(OCC(=O)c3ccccc3)c1)O2 | 3.63 µM | 13.1 µM | 8.9 µM | 26.4 µM | 4.44 µM | 17.4 µM
CN(C)C/C=C/C(=O)Nc1ccc(C(=O)N[C@@]2(C)CCC[C@@H](Nc3ncc(Cl)c(-c4c[nH]c5ccccc45)n3)C2)nc1 | 0.036 µM | 0.155 µM | – | – | < 0.01 µM | 0.0833 µM
O=C1NC(=S)S/C1=C/c1ccc2c(c1)OCO2 | – | – | > 100 µM | > 100 µM | 82.1 µM | > 100 µM
Nc1n[nH]c2cccc(C#Cc3cccc(NC(=O)c4cccc(C(F)(F)F)c4)c3)c12 | 3.34 µM | 11.1 µM | 3.91 µM | 23.2 µM | 3.96 µM | 14.6 µM
CCN(CC)CCCC(CCl)Nc1ccnc2cc(Cl)ccc12 (centres undefined) | 22.4 µM and 15.2 µM | 60.2 µM and 49.1 µM | 25.2 µM and 23.1 µM | 57.3 µM and 67.7 µM | 27.2 µM and 34.9 µM | > 100 µM
COc1ccc2c(c1)C(=O)CCc1cc(OC)c(OC)c(OC)c1-2 | – | – | < 0.01 µM | – | < 0.01 µM | > 100 µM
CC(C)CNc1nc(-c2ccccc2Cl)nc2ccccc12 | – | – | 17.8 µM | 42.6 µM | 18.5 µM | 46.4 µM
